{
  "source": "patent US20080015386A1",
  "about": "“Crystal of L-Ornithine-Citric Acid Salt” (KYOWA HAKKO KOGYO CO., LTD., priority 2004, published 2008)",
  "conditions": "25° C., relative humidity 75%, weight change measured until day 7; numerical values only in FIG. 1",
  "method": "A saturated aqueous solution of sodium chloride (approximately 200 mL) was allowed to stand in a plastic desiccator at 25° C. for 24 hours (relative humidity was adjusted to 75%). […] The weighing vessel was allowed to stand in the desiccator with the humidity adjusted, and the weight change of the weighing vessel was measured over the course of time.\nThe hygroscopicity (hygroscopic degree) was calculated using the following formula (1) on the basis of the weight change at each measuring time. The measurement of the weight change of the weighing vessel was continued until day 7.\nHygroscopic rate (%)=W3−W2/W2−W1×100 (1)\nW1=Weight (g) of a weighing vessel\nW2=Weight (g) of a weighing vessel filled with crystals before the test\nW3=Weight (g) of a weighing vessel filled with crystals after the test",
  "data": [
    {"smiles": "NCCC[C@H](N)C(=O)O.NCCC[C@H](N)C(=O)O.O=C(O)CC(O)(CC(=O)O)C(=O)O", "note": "[Example 1, L-ornithine-½ citric acid salt]", "values": [
      {"measurement": "Hygroscopicity (hygroscopic rate)", "result": "did not show notable hygroscopicity"}
    ]}
  ]
}
